The subject of the experiment is CEM cells HIV-1 protection, formazan growth assay. The experiment is described as follows: NCI AIDS Antiviral Assay. The note with it: for pIC50: measured here: growth of uninfected CEM cells. A digest of the protocol:
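Steps: treat uninfected and HIV-1-infected human CEM cells at five drug levels; quantify growth by soluble formazan; retest any compound reaching 50% protection; classify actives from the retest.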

Our source for the EC50, IC50 and outcome values is PubChem BioAssay AID179 (DTP/NCI, 2004).

pEC50, pIC50: −log10 of the molar value. Calls of active or inactive are those of the source.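 How the source made its calls: active means compounds giving half or more protection of infected cells from virus-caused growth loss, again on retest; inactive means the rest.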 Where a SMILES comes first, the peptide text is derived from it. Side-chain parts run from the residue outwards. The star is where a group is joined. Cbz = O=C(OCc1ccccc1)*; Boc = CC(C)(C)OC(=O)*

Turning to `CC1(C)CC(=O)c2c(nc(SSc3nc4c(c(-c5ccccc5)c3C#N)C(=O)CC(C)(C)C4)c(C#N)c2-c2ccccc2)C1`, the pEC50 – broadly, the negative decadic logarithm of the EC50, by convention in mol/L – was under 3.70 and the pIC50 (commonly the negative decadic logarithm of the IC50, by convention in mol/L) is 4.05.

Take `COC(=O)/C(C#N)=C1\NC(=O)c2ccccc21`: the pEC50 is under 4.08 and the pIC50 was under 4.08.

For `COc1ccc(N2C(=O)C3c4[nH]c5ccc(F)cc5c4C4CCC(c5ccccc5)CC4C3C2=O)cc1` (stereo not given), the pEC50 was under 3.70 and the pIC50 is 4.44.

As for `O=C1OC2(CC1C1(O)C3CC4CC(C3)CC1C4)C1CC3CC(C1)CC2C3` (stereo not given), the pEC50 is under 4.00 and the pIC50 was 4.41.

As for `Cn1ncc(=O)[nH]c1=S`, the pEC50 is under 3.70 and the pIC50 is under 3.70.

In the case of `COc1ccc2ncc(COC(=O)NC3CCCCC3)c(COC(=O)NC3CCCCC3)c2c1`, the pEC50 was under 3.76 and the pIC50 is 4.39.

For `Cc1cc(=O)oc2ccccc12`, the pEC50 is under 3.09 and the pIC50 is under 3.09.

Turning to `CCOC(=O)C1=C(c2ccccc2)NC(c2ccccc2)=C(C(=O)OCC)c2c1c(=O)cc[nH]c2=O`, the pEC50 was under 4.27 and the pIC50 is under 4.27.

Consider `COC(=O)C(Cn1cnc2c(N)ncnc21)P(=O)(OC)OC` (stereo not given), for which the pEC50 is under 3.12 and the pIC50 is 4.40.

As to `NC(=O)Cn1c(=O)[nH]c(=O)c2[nH]cnc21`, the pEC50 is under 3.76 and the pIC50 is under 3.76.

For the molecule `O=C1c2cc([N+](=O)[O-])ccc2NC1(c1c[nH]c2ccccc12)c1c[nH]c2ccc(Br)cc12` (stereo not given), the pEC50 is under 3.70 and the pIC50 was 4.58.

Consider `O=c1[nH][n+]([O-])cc2c(C(O)=C(O)O)c[nH]c12`, for which the result was inactive.

As for `CC1=C/C(=N\O)C(C(O)(C(F)(F)F)C(F)(F)F)C(C)(C)C1` (stereo not given), the pEC50 is under 3.70 and the pIC50 is 3.87.

As to `NS(=O)(=O)c1ccc(NC(=O)c2cccn3c(=O)c4ccccc4nc23)cc1`, the outcome was inactive.

Regarding `[O-][n+]1onc(-c2ccccc2)c1-c1ccccc1`, the pEC50 was under 3.82 and the pIC50 is under 3.82.

Regarding `CC(=O)/C(C=Nc1c(C)n(C)n(-c2ccccc2)c1=O)=C(/C)O`, the pEC50 was under 3.70 and the pIC50 was under 3.70.

Turning to `N#Cc1cnsc1`, the result was inactive.

For `Cc1ccc(C(=O)/C=C/c2ccccc2Cl)cc1`, the pEC50 is under 5.25 and the pIC50 was under 5.25.

On to `C=CCc1c(O)c2nsnc2c2nsnc12`, for which the pEC50 is under 3.70 and the pIC50 was under 3.70.

With `Cc1cn(C2CCC(/C=N\O)O2)c(=O)[nH]c1=O` (stereo not given), the pEC50 was under 3.70 and the pIC50 was under 3.70.

As for `CC(=O)n1c2c(c(=O)n1-c1ccccc1)S(=O)CCC2` (stereo not given), the pEC50 is under 3.91 and the pIC50 is 4.05.

Consider `Nc1ccc2c(O)c(N=Nc3ccc(N=Nc4ccc(S(=O)(=O)O)cc4)cc3)c(S(=O)(=O)O)cc2c1N=Nc1ccc(N=Nc2ccc(S(=O)(=O)O)cc2)cc1`, for which the outcome was active.

`CC(C)CC(NC(=O)OCc1ccccc1)C(=O)NCCCCC(NC(=O)C(CCCCNC(=O)C(CC(C)C)NC(=O)OCc1ccccc1)NC(=O)C(CCCCNC(=O)C(CC(C)C)NC(=O)OCc1ccccc1)NC(=O)C(CCCCNC(=O)C(CC(C)C)NC(=O)OCc1ccccc1)NC(=O)OC(C)(C)C)C(=O)O` (stereo not given) (Boc-K([Leu-Cbz])K([Leu-Cbz])K([Leu-Cbz])K([Leu-Cbz])-OH; configuration not given here): the pEC50 was under 4.00 and the pIC50 is under 4.00.

In the case of `CC(=O)CC1CCC(=O)/C=C/C(=O)OC(CC(C)=O)CCC(=O)/C=C/C(=O)O1` (stereo not given), the pEC50 is under 3.70 and the pIC50 was 5.72.

For the molecule `O=C1C2C3C=CC(O3)C2C(=O)N1/N=C\C(O)C(O)C(O)C(O)CO` (stereo not given), the pEC50 is under 3.89 and the pIC50 is under 3.89.

As for `O=c1cc[nH]c2c1ccc1[nH]ccc(=O)c12`, the pEC50 was under 3.70 and the pIC50 was under 3.70.

`CC(C)OP(=O)(OC(C)C)c1nc(-c2ccccc2)n(-c2ccc([N+](=O)[O-])cc2)n1`: the pEC50 is under 3.52 and the pIC50 is 3.66.

On to `O=C(Nc1ccc(-c2ccccn2)oc1=O)c1ccccc1`, for which the pEC50 was under 3.70 and the pIC50 is under 3.70.

Take `CC1SC(c2ccccc2)N(Nc2c3ccccc3nc3ccccc23)C1=O` (stereo not given): the pEC50 was under 4.17 and the pIC50 was under 4.17.

Turning to `CN(O)C1CC(=O)OC1CO[Si](C)(C)C(C)(C)C` (stereo not given), the pEC50 was under 3.70 and the pIC50 was 4.29.

As for `O=C(Cc1nc2ccccc2o1)C(=O)Nc1cccc(Cl)c1`, the result was inactive.

Regarding `Cc1nc(-n2nc(-c3ccccc3)cc2-c2ccccc2)sc1C(/C=C/c1ccc([N+](=O)[O-])cc1)=N/NC(N)=S`, the pEC50 was under 4.48 and the pIC50 was 4.57.

Consider `CCOC(=O)C1(C(=O)OCC)CCC(C(OC)OC)C(CC(=O)OC)C1` (stereo not given), for which the pEC50 was under 3.70 and the pIC50 was under 3.70.

Take `CC(OC(C)(C)C)[C@H](NC(=O)OCC(Cl)(Cl)Cl)C(=O)O` (stereo not given in full): the pEC50 is under 3.70 and the pIC50 was under 3.70.

Turning to `COc1ccc(/C(=N\N)C2=NNC3(CCCCC3)NN2)cc1`, the outcome was inactive.

Regarding `O=C1CCC(=O)N1n1c(Cc2ccc(Cl)cc2)n[nH]c1=O`, the pEC50 was under 3.70 and the pIC50 is under 3.70.

As to `O=[N+]([O-])c1ccc2nc3n(c2c1)C(c1c(F)cccc1F)SC3` (stereo not given), the pEC50 is under 3.70 and the pIC50 was under 3.70.

Take `CSc1nc2c(=O)oc(-c3ccc([N+](=O)[O-])cc3)nc2s1`: the pEC50 is under 3.82 and the pIC50 is 5.27.

For `Cc1cc(C)n(C(=C(C(Cl)=C(Cl)Cl)[N+](=O)[O-])n2nc(C)cc2C)n1`, the pEC50 is under 3.70 and the pIC50 was 5.36.

Turning to `C/C(=N\NS(=O)(=O)c1ccccc1)c1ccc(Cl)c(Cl)c1`, the outcome was inactive.

`Cc1nn(C(=O)Cc2ccccc2)c2c1C(c1ccc(Cl)cc1)SC(N)=N2` (stereo not given): the pEC50 is 3.96 and the pIC50 was 3.80.

For `O=C(Nc1nc(=S)[nH][nH]1)C(=O)C(c1cnc2ccc([N+](=O)[O-])cc2n1)[N+](=O)[O-]` (stereo not given), the pEC50 is under 3.35 and the pIC50 was 4.10.

Consider `O=C(OCC12CC3CC(CC(C3)C1)C2)c1ccc(NCc2cc(O)ccc2O)cc1`, for which the pEC50 is under 5.70 and the pIC50 is 5.75.

With `O=C1[C@H](Cc2ccccc2)C[C@H]2CO[C@H](c3ccccc3)N12`, the pEC50 is under 3.70 and the pIC50 is 4.41.

With `O=P(O)(Cc1ccccc1)c1ccccc1-c1ccccc1`, the pEC50 was under 3.70 and the pIC50 was 4.31.

As to `CC1=NN(C(=O)CC(=O)N(C(=O)c2ccccc2)c2ccc(Cl)cc2)C(=O)C1N=Nc1ccc([N+](=O)[O-])cc1` (stereo not given), the pEC50 was 3.76 and the pIC50 is under 3.70.

On to `O=NNc1ccc(SSc2ccc(NN=O)cc2)cc1`, for which the pEC50 is under 3.70 and the pIC50 was 4.10.

On to `Cc1c(C)c([N+](=O)[O-])c2c(c1N)C(=O)c1ccccc1C2=O`, for which the outcome was inactive.

Turning to `CN(CCC#N)c1ccc(/C=C(\C#N)c2cccc(C(F)(F)F)c2)cc1`, the pEC50 is under 3.70 and the pIC50 was 5.44.

As for `COC(OC)c1c2c(O)c3c(O)c(C)c4c(c3c1O)C(=O)C(C)(O/C=C/C(OC)C(C)C(OC(C)=O)C(C)C(O)C(C)C(O)C(C)/C=C/C=C(/C)C(=O)N2)O4` (stereo not given), the pEC50 is under 3.70 and the pIC50 was 4.60.

On to `CCOC(=O)C1(C(=O)OCC)COC(=O)C1CN1Cc2cc3ccccc3nc2C1` (stereo not given), for which the pEC50 is under 3.37 and the pIC50 is 4.32.

With `C(=N\Nc1nnc2c(n1)[nH]c1ccccc12)/c1ccccc1`, the pEC50 was under 3.70 and the pIC50 was under 3.70.

Turning to `OC(c1ccccc1)c1ccc(C(O)c2ccccc2)cc1` (stereo not given), the pEC50 was under 3.91 and the pIC50 was under 3.91.

For the molecule `C=C(Br)CC12CC3(CCC1c1ccc(OC)cc1C2=O)OCCO3` (stereo not given), the pEC50 is under 3.96 and the pIC50 is under 3.96.

Regarding `COc1ccc(C(=O)Cc2nc3nnc(N)n3nc2CC(=O)c2ccc(OC)cc2)cc1`, the pEC50 is under 3.24 and the pIC50 was under 3.24.

With `Cc1cc(=O)[nH]c(CNC(=O)Cc2ccccc2)n1`, the pEC50 was under 3.01 and the pIC50 is under 3.01.

For `CC(=O)Oc1cc(C(F)(F)F)ccc1C(=O)OC1(C)OC(=O)c2ccc(C(F)(F)F)cc2O1` (stereo not given), the pEC50 is under 3.70 and the pIC50 is 4.38.

As to `CNCCCC1c2ccccc2C=Cc2ccccc21`, the pEC50 was under 3.70 and the pIC50 is 4.43.

As to `COc1ccc(C2=CC(=O)CCC2)cc1`, the pEC50 is under 3.75 and the pIC50 was under 3.75.

Consider `Cc1cc2c(cc1C)[n+](=O)c(C(=O)C/C(=N/OCCCc1ccccc1)C(=O)Nc1cc(Cl)ccc1Cl)c(C)n2[O-]`, for which the pEC50 is under 5.20 and the pIC50 was under 5.20.

With `COc1ccc(C(=O)/C=C/c2ccc(OCCSCCCCCCCCCCSCCOc3ccc(/C=C/C(=O)c4ccc(OC)c(OC)c4)cc3)cc2)cc1OC`, the result was inactive.

In the case of `Cc1ccc(-n2cc(-c3ccc(Cl)cc3)c3c(NNC(=S)NCc4ccccc4)ncnc32)cc1`, the pEC50 is under 3.70 and the pIC50 was 5.12.

As to `COC(=O)C1CCOC(C)N1C(=O)OC(C)(C)C` (stereo not given), the pEC50 is under 3.70 and the pIC50 was under 3.70.

For `COc1c(Cl)cc(C(=CCCNC(=O)C[C@H]2CC[C@@]3(C)[C@@H](CC[C@@H]4[C@@H]3CC[C@]3(C)[C@@H](CC(=O)NCCC=C(c5cc(Cl)c(OC)c(C(=O)O)c5)c5cc(Cl)c(OC)c(C(=O)O)c5)CC[C@@H]43)C2)c2cc(Cl)c(OC)c(C(=O)O)c2)cc1C(=O)O`, the pEC50 is under 3.70 and the pIC50 was 3.83.

As to `CC[C@@]1(O)C(=O)OCc2c1cc1n(c2=O)Cc2cc3ccccc3nc2-1`, the pEC50 is under 7.00 and the pIC50 is 7.79.

For the molecule `Cc1cccc(C)c1NC(=O)CCCC(=O)C(C#N)c1ccc(Cl)cc1` (stereo not given), the pEC50 is under 3.87 and the pIC50 was under 3.87.

As to `C1OC1[C@@H]1CC[C@@H]([C@@H]2CC[C@@H]([C@H]3CO3)O2)O1` (stereo not given in full), the outcome was inactive and the pIC50 was 4.40.
